Experimental data: patent US20150087619A1, “METHOD OF MITIGATING VIRUS ASSOCIATED END-ORGAN DAMAGE” (CHIMERIX, INC., priority 2012, published 2015)
Entries after “also recorded” stand apart in the source; their conditions may differ.

Assays:
[1] = Pharmacokinetic analysis in pediatric and geriatric patients; format: in vivo, human
Method: This study population included five children. Pediatric patients received approximate doses of 1, 2, 3, or 4 mg/kg given once or twice weekly. […] Variability in PK parameters for this age group was high with respect to AUC, Cmax, and CL/F. In general, pediatric patients had lower plasma concentrations of HDP-CDV and CDV than adult healthy volunteers or patients on the same dose and schedule.
The study population also included 3 elderly adults. Geriatric patients received approximate doses of 1, 2, or 3 mg/kg given either once or twice weekly. Similar to pediatric patients, the medical condition of geriatric patients varied widely. Variability in PK parameters for this age group was high with respect to AUC, Cmax, and CL/F. In general, geriatric patients had higher plasma concentrations of HDP-CDV and CDV and lower CL/F than those observed in younger healthy volunteers or patients.
High CDV CL/fm values were also observed in children.

HSV = experiment: HDP-CDV given to patients with viral infections, virology data; conditions: patient 2 mo, 4.63 kg, neonatal HSV encephalitis; 4 mg/kg BIW; to below the limit of detection
AdV = experiment: In vitro antiviral activity in cell culture; format: cell-based
JCV = experiment: HDP-CDV given to patients with viral infections, virology data; conditions: patient, JCV associated PML; 2 mg/kg BIW; initial 398 (CSF) and 557 (urine)
EBV = experiment: In vitro antiviral activity in cell culture; format: cell-based; conditions: human gammaherpesvirus 4
BKV [2] = experiment: In vitro antiviral activity in cell culture; format: cell-based
[3] = Safety in clinical trials; format: in vivo, human; conditions: extensive clinical trials
BKV [4] = experiment: HDP-CDV given to patients with viral infections, virology data; conditions: patient
CMV = experiment: In vitro antiviral activity in cell culture; format: cell-based; conditions: Human betaherpesvirus 5
VZV-BAC-Luc strain = format: in vivo, mouse
BKV [5] = experiment: Study HDP-CDV-201: BK viruria and viremia in post-HCT subjects; format: in vivo, human
Method: A HDP-CDV-201, a 9-11 week randomized, placebo-controlled, double-blind, dose-escalation clinical study (40 mg weekly [QW], 100 mg QW, 200 mg QW, 200 mg twice-weekly [BIW], and 100 mg BIW) of HDP-CDV for the prevention of BKV infection post-HCT was performed. Treatment was initiated at the time of engraftment and continued until Week 13 post-HCT.
A multicenter, randomized, double-blind, placebo-controlled, dose-escalation study of safety, tolerability, and ability of HDP-CDV to prevent or control AdV, BKV, and EBV infection and associated disorders was conducted. During enrollment of patients in the study, urine samples of candidate patients were routinely screened for BKV. Plasma was collected from patients who tested positive for BKV viruria in urine, and AdV, EBV and BKV level in the plasma was evaluated.
Subjects were tabulated according to treatment group (pooled HDP-CDV versus placebo) and BKV status (viruria positive or negative any time during treatment). Pairwise comparisons were performed using a Fisher's exact test. Data were pooled for HDP-CDV versus placebo groups due to the limited sample size. […] Data from the largest study cohort (HDP-CDV 100 mg BIW) are presented separately in some of the analyses as this dose as been selected for further development of HDP-CDV in Phase 3 trials.

clinical = conditions: male, human, plasma, 40 mg
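Throughout, for Cmax: plasma levels quantified by validated LC-MS/MS, LLOQ 0.1 ng/mL for HDP-CDV and 0.5 ng/mL for CDV, crossover design with 14-day washout between single doses.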

Compound: CCCCCCCCCCCCCCCCOCCCOP(=O)(O)COC(CO)Cn1ccc(N)nc1=O (centres unmarked) [HDP-CDV]
- CDV CL/fm values ([1]; children): High
- CL/F vs younger healthy volunteers or patients ([1]; geriatric patients aged 66-68 years): lower
- plasma concentrations of HDP-CDV and CDV vs younger healthy volunteers or patients ([1]; geriatric patients aged 66-68 years, approx. 1-3 mg/kg once or twice weekly): higher
- CL/F values vs older subjects ([1]; patients <20 years of age): higher
- HSV in the CSF decrease (HSV): > 1.8 log10 copies/mL to below the limit of
- EC50 (AdV): 20 nM
- JCV viral load in the CSF and urine during treatment (JCV): viral load became undetectable (<300 copies/mL
- EC50 (EBV): 40 nM
- EC50 (BKV [2]): 130 nM
- myelosuppression or nephrotoxicity [3]: has not been associated with either myelosuppression or nephrotoxicity
- response of BKV in urine (BKV [4]; 57.9 kg, 2 mg/kg BIW): CMV viremia but no sustained response of
- BK viruria during administration (BKV [4]; 69 kg, BKV hemorrhagic cystitis, 2 mg/kg, 1 mg/kg second dose, then 2 mg/kg BIW): ganciclovir. BK viruria decreased during
- BKV in urine (BKV [4]; 108 kg, 3 mg/kg first dose, 2 mg/kg BIW thereafter, by a similar amount (almost 2 log10)): rose
- EC50 (CMV): 1 nM
- viral load (qPCR) (VZV-BAC-Luc strain; 1.25, 2.5, and 5.0 mg/kg, 8 doses once daily): dose dependent
- efficacy in vivo (VZV-BAC-Luc strain; SCID-Hu mouse model of VZV replication): highly effective
- antiviral effect (BKV [5]; 40 mg QW dose): has not been shown to have antiviral activity; also recorded: no antiviral effect
- BKV viral load and risk or incidence of end organ damage (BKV [5]; BKU+ patients, FIG. 3): effective in reducing BKV viral load and the risk or incidence of end organ damage
- >10,000 confirmed, new onset (viremia) (BKV [5]; Cohort 4A 100 mg BIW): 0
- Viruria >1.0E+10 but only at posttreatment week (BKV [5]; Cohort 4A 100 mg BIW (1/22)): (4.5%)
- Viremia sustained, but no viremia at baseline (BKV [5]; Cohort 4A 100 mg BIW (3/22)): (13.6%)
- Viremia >1000 copies/mL confirmed (BKV [5]; Cohort 4A 100 mg BIW (4/22)): (18.2%)
- Viremia sustained (at least 2 consecutive values positive) (BKV [5]; Cohort 4A 100 mg BIW (5/22)): (22.7%)
- Viremia at any time during treatment (BKV [5]; Cohort 4A 100 mg BIW (6/22)): (27.3%)
- Viruria >1.0E+10 at any time during treatment (BKV [5]; Cohort 4A 100 mg BIW, BKV positive urine at baseline (4/22)): (18.2%)
- BK viremia (BKV [5]; Cohort 4a (100 mg BIW), 5/22): 23%
- Viruria >1.0E+10 but only at posttreatment week (BKV [5]; Pooled HDP-CDV cohorts (4/77)): (5.2%)
- >10,000 confirmed, new onset (viremia) (BKV [5]; Pooled HDP-CDV cohorts (5/77)): (6.5%)
- Viremia sustained, but no viremia at baseline (BKV [5]; Pooled HDP-CDV cohorts (23/77)): (29.9%)
- Viremia >1000 copies/mL confirmed (BKV [5]; Pooled HDP-CDV cohorts (31/77)): (26%)
- Viremia sustained (at least 2 consecutive values positive) (BKV [5]; Pooled HDP-CDV cohorts (32/77)): (41.6%)
- Viremia at any time during treatment (BKV [5]; Pooled HDP-CDV cohorts (40/77)): (47%)
- Viruria >1.0E+10 at any time during treatment (BKV [5]; Pooled HDP-CDV cohorts, BKV positive urine at baseline (26/77)): (33.8%)
- subjects who developed viremia >10,000 copies/mL (BKV [5]; cohort 1 (40 mg QW)): 1
- BK viremia (BKV [5]; cohort 1 (40 mg QW), 5/8): 62%
- subjects who developed viremia >10,000 copies/mL (BKV [5]; cohort 2 (100 mg QW)): 1
- subjects who developed viremia >10,000 copies/mL (BKV [5]; cohort 3 (200 mg QW)): 3
- subjects who developed viremia >10,000 copies/mL (BKV [5]; cohort 4 (200 mg BIW)): 3
- subjects who developed viremia >10,000 copies/mL (BKV [5]; cohort 4a (100 mg BIW)): 0
- subjects with high levels of BK viruria (BKV [5]; negative for BK viruria at baseline, Cohort 1 (40 mg QW)): 0 subject
- subjects with high levels of BK viruria (BKV [5]; negative for BK viruria at baseline, Cohort 2 (100 mg QW)): 1 subject
- subjects with high levels of BK viruria (BKV [5]; negative for BK viruria at baseline, Cohort 3 (200 mg QW)): 2 subject
- subjects with high levels of BK viruria (BKV [5]; negative for BK viruria at baseline, Cohort 4 (200 mg BIW)): 0 subject
- subjects with high levels of BK viruria (BKV [5]; negative for BK viruria at baseline, Cohort 4a (100 mg BIW)): 0 subject
- subjects with viremia (BKV [5]; negative for BK viruria at baseline, pooled HDP-CDV): one
- viral load (maximum BKV viruria) (BKV [5]; patients (67%) who did not develop end organ disease, FIG. 3): 2.0×10^8
- viral load (maximum BKV viruria) (BKV [5]; patients who developed end organ disease after treatment (33%), FIG. 3): 3.2×10^8
- viral load compared to patients who received placebo (BKV [5]; patients who developed end organ disease after treatment, FIG. 3): significantly lower viral load
- sustained BK viruria (at least 4 weeks with BK positive urine measurements) (BKV [5]; subjects negative for BK viruria at baseline (9/73), placebo 21%): 12%
- confirmed new onset BK viruria during treatment (BKV [5]; subjects negative for BK viruria at baseline (10/73), placebo 25%): 14%
- measurable BK viruria on at least one occasion (BKV [5]; subjects negative for BK viruria at baseline (16/73), placebo 29%): 22%
- AUC(0-inf) (clinical; oral): 476 ng·h/mL
- AUC(0-t) (clinical; oral): 457 ng·h/mL
- Cmax (clinical; oral): 70.5 ng/mL
- AUC(0-inf) (clinical; po): 574 ng·h/mL
- AUC(0-t) (clinical; po): 549 ng·h/mL
- Cmax (clinical; po): 77.7 ng/mL
- Vd/F (clinical; po): 831 L
- half-life (clinical; po): 8.06 h
